In patent US12202801B1 (priority 2023, dated 2025):

Tested on: Mycobacterium tuberculosis H37Rv
Experiment: Resazurin Microplate Assay (REMA), anti-tubercular activity, H37Rv strain
Assay type: cell-based
Details: 192 h, read-out: Anti-tubercular activity against Mycobacterium tuberculosis (MIC), H37Rv

Structure (SMILES): N#Cc1ccc(C(=O)C[n+]2ccc(C#N)cc2)cc1.[Br-] [Compound 3f, 4-Cyano-1-(2-(4-cyanophenyl)-2-oxoethyl)pyridin-1-ium bromide]
- MIC: 1 µg/mL
